# Assay results taken from patent US7112318B2, “Non-invasive diagnostic imaging technology for mitochondria dysfunction using radiolabeled lipophilic salts” (The Johns Hopkins University, priority 2002, dated 2006).
# Where “and” joins values, the source holds several entries; their conditions need not be identical. Equal entries are not always repeated. Where two headings read alike, the source gives them in different places.
# How the values were obtained:
# FCA-induced inflammation = experiment: Accumulation in FCA-induced inflammation tissue and healthy muscle; assay type: in vivo; conditions: rats, 3 days after administration of FCA
# Procedure: 0.1 ml of nitrosomethyl urea (NUM) was introduced i.p in female rats (150 g). When tumor reached an approximate size of 1 to 1.5 cm, FCA was injected (0.15 ml) to the hind limb footpad. Uptake assays were carried out 3 days thereafter. F-18-FBnTP (0.25 mCi) was injected via tail vein. Sixty minutes later tumor, inflamed tissue and healthy muscle tissue of the opposite limb (control) were collected on ice, weighed and counted in a gamma counter together with standards.
# The accumulation of the novel F-18-phosphonium cations, F-18-FBnTP and F-18-fluoropropyl triphenyl phosphonium (F-18-FPTP) in comparison with F-18-FDG in FCA-induced inflammation and healthy tissue is presented in Table 2. Induction of inflammation and activity counting were carried out as described above.
# prostate carcinoma = experiment: Tumor selectivity in orthotopic model of prostate carcinoma; assay type: in vivo; conditions: nude mice, normalized to muscle
# Procedure: Methods: 2×10^6 cells were injected, under anesthesia, into the prostate epithelial tissue of nude mice. When tumor reached an approximate size of 5 mm, uptake assays were performed as described above. Tumor selectivity of F-18-FBnTP and F-18-FDG was compared (3 mice in each group)
# myocardium [1] = conditions: cited from earlier work; for myocardial extraction under baseline / normal flow: baseline or normal flow; for myocardial extraction at increased flow: five-fold increases in flow rate / high flow rates
# [2] = Biodistribution in mice 60 min after i.v. injection; conditions: 60 min after iv. injection
# Procedure: (§1) Three to five mice were used for the biodistribution study of each tracer. Nonanesthetized animals were injected i.v. with tracer solution (FBnTP or FPTP, TPMP 25 μCi; MIBI 40 μCi; TPP 2 μCi, all in a volume of 0.2 mL saline) then killed by neck dislocation at 60 min after injection. The organs and tissues of interest were removed and counted by a radioactivity counter along with standards (1:1000) (LKB Wallac, 1282 Compugamma CS).
# myocardium [3] = experiment: C-11-TPMP uptake kinetics in the myocardium (dog PET, LAD occlusion); assay type: in vivo
# Procedure: We have examined the performance of C-11-triphenyl phosphonium cation (TPMP) for assessing regional myocardial flow in dog using PET (Kraus, 1994).
# Methods: Four mCi of C-11-TPMP were introduced i.v., and dynamic images of increasing duration (15 sec to 20 min) were acquired over a total time of 85 min. Images were acquired on the GE 4096+ PET scanner (15 slices, 6.5 mm slice thickness). Images were reconstructed using backprojection, and corrected for attenuation. A detailed description of methods appears in Kraus, 1994.
# To investigate the relationship between myocardial blood flow and C-11-TPMP uptake in the heart, the LAD was occluded and the C-11-TPMP accumulation in tissue samples compared to microsphere determined regional myocardial blood flow. A significant correlation (r=0.93, p<0.01) was found at 5 min after LAD occlusion (FIG. 12). The non-infracted/infracted myocardium ratio was 12.1±2.4.
# [4] = mouse, in vivo, iv, 60 min
# Procedure: as §1
Compound,Inf/Control (FCA-induced inflammation),"biodistribution, blood [2] [% ID/g]","biodistribution, brain [2] [% ID/g]","biodistribution, heart [2] [% ID/g]","biodistribution, kidney [2] [% ID/g]","biodistribution, liver [2] [% ID/g]","biodistribution, lung [2] [% ID/g]","biodistribution, muscle [2] [% ID/g]","biodistribution, spleen [2] [% ID/g]","accumulation, Control (healthy muscle) (FCA-induced inflammation)","accumulation, Inflammation (FCA-induced inflammation)",myocardial extraction under baseline / normal flow (myocardium [1]),myocardial extraction at increased flow (myocardium [1]),further results
[201Tl] [Thallium 201],–,–,–,–,–,–,–,–,–,–,–,about 80%,about 60%,–
"[18F]CCC[P+](c1ccccc1)(c1ccccc1)c1ccccc1 [[18F]FPTP, [^18F]3-fluoropropyltriphenyl-phosphonium ion]",0.25 ± 0.04,0.01 ± 0.00,0.03 ± 0.00,9.86 ± 0.82,5.74 ± 0.54,4.22 ± 1.79,2.02 ± 0.34,2.06 ± 0.53,1.23 ± 0.26,0.29 ± 0.06 % ID/g tissue,0.07 ± 0.01 % ID/g tissue,–,–,"accumulation, Blood (FCA-induced inflammation): *0.037 ± 0.01 % ID/g tissue"
"[11CH3][P+](c1ccccc1)(c1ccccc1)c1ccccc1 [[11C]TPMP, C-11-triphenylmethyl phosphonium]",–,0.03 ± 0.00,–,13.4 ± 0.95,3.79 ± 0.83,5.68 ± 0.60,2.20 ± 0.21,2.49 ± 0.35,1.43 ± 0.18,–,–,–,–,"extraction fraction in the heart (myocardium [3]; baseline conditions, flow=69 ml/min/100 g): 91%; decrease of the extraction fraction (myocardium [3]; five-fold increase in flow by adenosine): 39%"
"c1ccc([P+](c2ccccc2)(c2ccccc2)c2ccccc2)cc1 [[^3H]TPP, tetraphenyl phosphonium]",–,–,–,–,–,–,–,–,–,–,–,–,–,"biodistribution, blood [4]: 0.09 ± 0.02 % ID/g; biodistribution, brain [4]: 0.06 0.02 % ID/g; biodistribution, heart [4]: 20.7 ± 1.92 % ID/g; biodistribution, kidney [4]: 4.37 ± 0.66 % ID/g; biodistribution, liver [4]: 6.12 ± 1.08 % ID/g; biodistribution, lung [4]: 2.81 ± 0.41 % ID/g; biodistribution, muscle [4]: 2.22 ± 0.41 % ID/g; biodistribution, spleen [4]: 1.93 ± 0.47 % ID/g"

# Continued, in another order:
Inf/Control (FCA-induced inflammation),"biodistribution, blood [2] [% ID/g]","biodistribution, brain [2] [% ID/g]","biodistribution, heart [2] [% ID/g]","biodistribution, kidney [2] [% ID/g]","biodistribution, liver [2] [% ID/g]","biodistribution, lung [2] [% ID/g]","biodistribution, muscle [2] [% ID/g]","biodistribution, spleen [2] [% ID/g]",Compound,"accumulation, Control (healthy muscle) (FCA-induced inflammation)","accumulation, Inflammation (FCA-induced inflammation)",myocardial extraction under baseline / normal flow (myocardium [1]),myocardial extraction at increased flow (myocardium [1]),further results
2.12 ± 0.73 and 1.20 ± 0.29,–,–,–,–,–,–,–,–,"OC[C@H]1OC(O)[C@H]([18F])[C@@H](O)[C@@H]1O (stereo partly drawn) [[^18F]FDG, reference compound]",0.68 ± 0.14 % ID/g tissue and 1.05 ± 0.35 % ID/g tissue,1.42 ± 0.53 % ID/g tissue and 1.20 ± 0.16 % ID/g tissue,–,–,uptake ratio of malignant-to-normal prostate tissue (prostate carcinoma): 1.25
–,0.26 ± 0.05,0.08 ± 0.04,5.08 ± 0.25,12.6 ± 2.57,5.55 ± 1.08,0.98 ± 0.19,1.56 ± 0.31,1.27 ± 0.33,"[99Tc].[C-]#[N+]CC(C)(C)OC.[C-]#[N+]CC(C)(C)OC.[C-]#[N+]CC(C)(C)OC.[C-]#[N+]CC(C)(C)OC.[C-]#[N+]CC(C)(C)OC.[C-]#[N+]CC(C)(C)OC [[^99mTc]MIBI, Tc-99m-sestamibii, reference compound]",–,–,about 60%,40%,–
